# Reference: patent publication US20230117034A1, “PYRAZOLOTRIAZINES” (Bayer Aktiengesellschaft, priority 2019, published 2023)
# How the values were obtained:
# [1] = biological target: T1, CYCLIN K (nuclear staining in CAL-120 cells) (Homo sapiens, UniProt O75909); experiment: CYCLIN K nuclear protein level: immunofluorescence high content analysis (CAL-120); assay type: cell-based; details: 24 h, 50% reduction of nuclear CCNK staining intensity, median, read-out: CYCLIN K degradation IF, DC50-[mol/l] (median)
# T1 construct: endogenous in cells; host or cells: CAL-120 human breast cancer cells (DSMZ ACC 459)
# T1 sequence (O75909 whole entry): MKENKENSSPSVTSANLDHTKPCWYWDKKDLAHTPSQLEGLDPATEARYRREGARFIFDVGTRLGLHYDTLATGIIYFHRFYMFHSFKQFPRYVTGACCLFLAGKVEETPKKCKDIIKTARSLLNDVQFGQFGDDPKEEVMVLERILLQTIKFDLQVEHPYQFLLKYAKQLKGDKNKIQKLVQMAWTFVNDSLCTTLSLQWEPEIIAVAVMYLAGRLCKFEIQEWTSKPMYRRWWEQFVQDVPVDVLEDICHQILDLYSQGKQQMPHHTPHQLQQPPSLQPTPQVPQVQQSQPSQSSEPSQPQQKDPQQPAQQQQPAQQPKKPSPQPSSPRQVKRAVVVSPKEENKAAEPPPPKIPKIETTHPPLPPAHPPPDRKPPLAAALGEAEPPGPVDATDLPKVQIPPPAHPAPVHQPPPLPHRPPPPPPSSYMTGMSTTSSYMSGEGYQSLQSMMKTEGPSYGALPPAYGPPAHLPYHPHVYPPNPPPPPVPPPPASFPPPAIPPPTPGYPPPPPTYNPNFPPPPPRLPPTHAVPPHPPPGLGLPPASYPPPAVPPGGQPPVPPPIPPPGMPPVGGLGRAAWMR
# T1 sequence (Q9NYV4 whole entry partner): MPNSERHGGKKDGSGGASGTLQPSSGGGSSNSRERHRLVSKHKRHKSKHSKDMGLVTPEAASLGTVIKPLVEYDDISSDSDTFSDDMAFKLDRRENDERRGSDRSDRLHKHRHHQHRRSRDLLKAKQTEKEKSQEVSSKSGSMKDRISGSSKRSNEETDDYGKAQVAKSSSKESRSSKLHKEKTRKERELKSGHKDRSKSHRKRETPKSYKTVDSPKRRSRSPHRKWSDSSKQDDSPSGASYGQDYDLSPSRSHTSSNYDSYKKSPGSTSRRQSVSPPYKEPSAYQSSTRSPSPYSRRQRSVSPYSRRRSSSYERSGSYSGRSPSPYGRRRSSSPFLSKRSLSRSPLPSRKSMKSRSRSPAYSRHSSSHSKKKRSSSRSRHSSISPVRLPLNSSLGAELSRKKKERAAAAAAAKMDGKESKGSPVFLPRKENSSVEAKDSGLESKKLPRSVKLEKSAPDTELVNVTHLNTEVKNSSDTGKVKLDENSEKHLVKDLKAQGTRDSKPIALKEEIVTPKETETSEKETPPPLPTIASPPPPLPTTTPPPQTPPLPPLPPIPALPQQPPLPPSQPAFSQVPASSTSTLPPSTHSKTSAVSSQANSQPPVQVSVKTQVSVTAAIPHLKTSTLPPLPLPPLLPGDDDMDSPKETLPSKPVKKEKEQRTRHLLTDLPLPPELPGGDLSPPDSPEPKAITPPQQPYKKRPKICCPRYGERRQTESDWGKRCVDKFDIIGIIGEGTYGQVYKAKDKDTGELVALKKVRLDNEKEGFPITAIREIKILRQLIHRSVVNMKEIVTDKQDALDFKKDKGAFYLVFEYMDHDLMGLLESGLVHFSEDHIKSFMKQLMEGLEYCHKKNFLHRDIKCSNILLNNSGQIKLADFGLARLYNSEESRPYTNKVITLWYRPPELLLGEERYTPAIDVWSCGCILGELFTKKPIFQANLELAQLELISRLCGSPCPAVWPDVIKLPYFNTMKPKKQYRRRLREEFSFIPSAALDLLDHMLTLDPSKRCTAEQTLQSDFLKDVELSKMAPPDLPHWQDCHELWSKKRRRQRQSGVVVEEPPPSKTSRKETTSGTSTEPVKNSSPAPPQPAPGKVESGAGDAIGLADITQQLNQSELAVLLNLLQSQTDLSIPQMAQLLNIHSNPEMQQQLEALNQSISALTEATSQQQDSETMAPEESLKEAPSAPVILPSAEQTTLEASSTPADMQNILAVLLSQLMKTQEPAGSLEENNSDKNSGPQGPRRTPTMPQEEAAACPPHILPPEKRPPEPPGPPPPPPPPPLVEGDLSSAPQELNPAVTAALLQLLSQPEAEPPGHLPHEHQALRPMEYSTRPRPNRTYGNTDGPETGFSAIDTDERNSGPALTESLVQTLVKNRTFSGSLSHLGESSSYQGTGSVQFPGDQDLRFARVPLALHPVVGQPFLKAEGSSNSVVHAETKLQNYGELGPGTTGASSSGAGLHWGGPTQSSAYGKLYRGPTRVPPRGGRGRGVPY
# Method in brief: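 CAL-120 breast cancer cells treated in dose-response for 24 h at 37 °C, PFA-fixed and immunostained for cyclin K with Hoechst counterstain. Confocal imaging quantified nuclear intensity; DC50 is the concentration giving 50% reduction of nuclear CCNK staining, normalized to DMSO and control.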
# CDK9/CycT1 = biological target: T2, CDK9/CycT1 (Homo sapiens, UniProt P50750); experiment: CDK9/CycT1 high ATP kinase assay (TR-FRET, 2 mM ATP); assay type: biochemical; details: 2 mM ATP (high ATP); median; read-out: CDK9/CyclinT1, 2 mM ATP (high ATP), IC50 (median)
# T2 construct: Recombinant full-length His-tagged human CDK9 and CycT1; purchased Life Technologies PV4131; host or cells: insect cells
# T2 sequence (P50750 whole entry): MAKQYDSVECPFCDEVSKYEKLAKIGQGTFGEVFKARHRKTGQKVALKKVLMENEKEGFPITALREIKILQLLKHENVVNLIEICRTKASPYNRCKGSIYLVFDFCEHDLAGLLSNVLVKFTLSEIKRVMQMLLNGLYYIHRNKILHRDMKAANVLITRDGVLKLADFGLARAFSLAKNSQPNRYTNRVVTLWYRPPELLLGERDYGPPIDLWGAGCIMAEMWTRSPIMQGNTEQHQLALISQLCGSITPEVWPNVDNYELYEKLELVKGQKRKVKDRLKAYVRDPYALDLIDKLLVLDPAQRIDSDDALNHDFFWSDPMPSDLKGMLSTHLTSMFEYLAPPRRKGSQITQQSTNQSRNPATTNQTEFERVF
# T2 sequence (O60563 whole entry partner): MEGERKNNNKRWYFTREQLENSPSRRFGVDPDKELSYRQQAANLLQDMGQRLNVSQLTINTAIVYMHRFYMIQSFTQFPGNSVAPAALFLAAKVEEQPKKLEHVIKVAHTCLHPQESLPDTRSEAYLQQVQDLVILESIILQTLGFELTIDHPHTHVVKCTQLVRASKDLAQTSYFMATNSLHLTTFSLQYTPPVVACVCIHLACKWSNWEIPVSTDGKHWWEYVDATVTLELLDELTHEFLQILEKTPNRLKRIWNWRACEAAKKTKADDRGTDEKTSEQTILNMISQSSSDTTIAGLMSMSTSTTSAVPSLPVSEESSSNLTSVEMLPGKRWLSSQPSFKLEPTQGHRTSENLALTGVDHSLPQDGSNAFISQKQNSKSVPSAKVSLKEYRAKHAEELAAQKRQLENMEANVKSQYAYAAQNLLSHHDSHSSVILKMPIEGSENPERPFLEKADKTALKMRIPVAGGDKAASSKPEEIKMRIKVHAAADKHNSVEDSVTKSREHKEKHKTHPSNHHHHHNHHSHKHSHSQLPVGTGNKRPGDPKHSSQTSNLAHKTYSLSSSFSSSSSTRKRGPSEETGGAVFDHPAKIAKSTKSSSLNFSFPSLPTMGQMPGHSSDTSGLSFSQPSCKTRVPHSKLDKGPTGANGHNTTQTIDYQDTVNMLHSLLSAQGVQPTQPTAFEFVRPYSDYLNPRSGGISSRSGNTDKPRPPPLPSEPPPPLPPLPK
# Method in brief: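 Full-length His-tagged human CDK9/CycT1 (insect cell, ~0.5 μg/mL) preincubated 15 min at 22 °C with compound in Tris pH 8.0, MgCl2, DTT buffer before reaction with biotinylated peptide substrate at high ATP (2 mM).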
# [2] = system: MDA-MB-231, human breast cancer cells; experiment: Proliferation assay MDA-MB-231 (crystal violet, 4 days); assay type: cell-based; details: Homo sapiens, MDA-MB-231, 96 h, MDA-MB-231 cells, median, read-out: Prolif-MDA MB-231, IC50-[mol/l] (median)
# Method in brief: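 Following a 24 h attachment in 10% fetal calf serum medium, cells receive test substance over 0.01-10 µmol/L for 4 days. Dye retained by fixed cells is eluted and read at 595 nm; cell number change is referenced to day-0 and untreated wells.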
DC50 [1] [nM],IC50 (CDK9/CycT1) [nM],IC50 [2] [nM],Structure (SMILES)
66.3,14700,,"Cc1[nH]c(CNc2nc(N3CCOCC3)nc3c(Br)cnn23)nc1-c1ccccc1 [Example 27, 8-bromo-N-[(5-methyl-4-phenyl-1H-imidazol-2-yl)methyl]-2-(morpholin-4-yl)pyrazolo[1,5-a][1,3,5]triazin-4-amine]"
0.888,> 20000,74.5,"Cc1ccnc2[nH]c(CNc3nc(N4CCOCC4)nc4c(C(C)C)cnn34)nc12 [Example 28, N-[(7-methyl-3H-imidazo[4,5-b]pyridin-2-yl)methyl]-2-(morpholin-4-yl)-8-(propan-2-yl)pyrazolo[1,5-a][1,3,5]triazin-4-amine]"
3.36,2400,89.9,"Fc1ccc(-c2nnc(CNc3nc(N4CCOCC4)nc4c(Br)cnn34)[nH]2)cc1 [Example 29, 8-bromo-N-{[5-(4-fluorophenyl)-4H-1,2,4-triazol-3-yl]methyl}-2-(morpholin-4-yl)pyrazolo[1,5-a][1,3,5]triazin-4-amine]"
4.1,> 20000,,"CC(C)c1cnn2c(NCc3ncc(-c4ccccc4)[nH]3)nc(N3CCOCC3)nc12 [Example 30, 2-(morpholin-4-yl)-N-[(5-phenyl-1H-imidazol-2-yl)methyl]-8-(propan-2-yl)pyrazolo[1,5-a][1,3,5]triazin-4-amine]"
0.492,> 20000,4.76,"CN(CC(C)(C)O)c1nc(NCc2nc3cc(F)c(F)cc3[nH]2)n2ncc(C3CC3)c2n1 [Example 319, 1-[(8-cyclopropyl-4-{[(5,6-difluoro-1H-benzimidazol-2-yl)methyl]amino}pyrazolo[1,5-a][1,3,5]triazin-2-yl)(methyl)amino]-2-methylpropan-2-ol]"
1.36,7300,2.45,"Cc1cc2nc(CNc3nc(N(C)CC(C)(C)O)nc4c(C5CC5)cnn34)[nH]c2cc1C [Example 321, 1-[(8-cyclopropyl-4-{[(5,6-dimethyl-1H-benzimidazol-2-yl)methyl]amino}pyrazolo[1,5-a][1,3,5]triazin-2-yl)(methyl)amino]-2-methylpropan-2-ol]"
0.16,> 20000,3.38,"CN1CCN(c2nc(NCc3nc4cc(Cl)c(Cl)cc4[nH]3)n3ncc(Br)c3n2)CC1 [Example 330, 8-bromo-N-[(5,6-dichloro-1H-benzimidazol-2-yl)methyl]-2-(4-methylpiperazin-1-yl)pyrazolo[1,5-a][1,3,5]triazin-4-amine]"
0.52,,4.27,"Fc1cc2nc(CNc3nc(N4CCOCC4)nc4c(Br)cnn34)[nH]c2cc1Cl [Example 336, 8-bromo-N-[(6-chloro-5-fluoro-1H-benzimidazol-2-yl)methyl]-2-(morpholin-4-yl)pyrazolo[1,5-a][1,3,5]triazin-4-amine]"
,> 20000,297,"CC[C@H](COC)Nc1nc(NCc2nc3ccccc3[nH]2)n2ncc(Br)c2n1 [Example 369, N4-[(1H-benzimidazol-2-yl)methyl]-8-bromo-N2-[(2R)-1-methoxybutan-2-yl]pyrazolo[1,5-a][1,3,5]triazine-2,4-diamine]"
,14500,142,"FC(F)(F)Oc1cccc2[nH]c(CNc3nc(N4CCOCC4)nc4c(Br)cnn34)nc12 [Example 375, 8-bromo-2-(morpholin-4-yl)-N-{[4-(trifluoromethoxy)-1H-benzimidazol-2-yl]methyl}pyrazolo[1,5-a][1,3,5]triazin-4-amine]"
,> 20000,102,"CN1CCN(c2nc(NCc3nc4c(OC(F)(F)F)cccc4[nH]3)n3ncc(Br)c3n2)CC1 [Example 376, 8-bromo-2-(4-methylpiperazin-1-yl)-N-{[4-(trifluoromethoxy)-1H-benzimidazol-2-yl]methyl}pyrazolo[1,5-a][1,3,5]triazin-4-amine]"
,> 20000,116,"CN1CCN(c2nc(NCc3nc4cc(OC(F)(F)F)ccc4[nH]3)n3ncc(Br)c3n2)CC1 [Example 377, 8-bromo-2-(4-methylpiperazin-1-yl)-N-{[5-(trifluoromethoxy)-1H-benzimidazol-2-yl]methyl}pyrazolo[1,5-a][1,3,5]triazin-4-amine]"
,12700,96.4,"CN(CC(C)(C)O)c1nc(NCc2nc3cc(OC(F)(F)F)ccc3[nH]2)n2ncc(Br)c2n1 [Example 378, 1-{[8-bromo-4-({[5-(trifluoromethoxy)-1H-benzimidazol-2-yl]methyl}amino)pyrazolo[1,5-a][1,3,5]triazin-2-yl](methyl)amino}-2-methylpropan-2-ol]"
,1290,43.8,"Fc1cccc(-c2nnc(CNc3nc(N4CCOCC4)nc4c(C(F)(F)F)cnn34)[nH]2)c1 [Example 385, N-{[5-(3-fluorophenyl)-4H-1,2,4-triazol-3-yl]methyl}-2-(morpholin-4-yl)-8-(trifluoromethyl)pyrazolo[1,5-a][1,3,5]triazin-4-amine]"
,749,20.2,"Fc1cc(F)cc(-c2nnc(CNc3nc(N4CCOCC4)nc4c(C(F)(F)F)cnn34)[nH]2)c1 [Example 386, N-{[5-(3,5-difluorophenyl)-4H-1,2,4-triazol-3-yl]methyl}-2-(morpholin-4-yl)-8-(trifluoromethyl)pyrazolo[1,5-a][1,3,5]triazin-4-amine]"
,5930,4.57,"CN(CC(C)(C)O)c1nc(NCc2nc3c(F)c(Cl)ccc3[nH]2)n2ncc(C3CC3)c2n1 [Example 387, 1-[(4-{[(5-chloro-4-fluoro-1H-benzimidazol-2-yl)methyl]amino}-8-cyclopropylpyrazolo[1,5-a][1,3,5]triazin-2-yl)(methyl)amino]-2-methylpropan-2-ol]"
,> 20000,30.2,"C[C@H]1CN(C)CCN1c1nc(NCc2nc3c(F)cccc3[nH]2)n2ncc(C(F)(F)F)c2n1 [Example 388, 2-[(2S)-2,4-dimethylpiperazin-1-yl]-N-[(4-fluoro-1H-benzimidazol-2-yl)methyl]-8-(trifluoromethyl)pyrazolo[1,5-a][1,3,5]triazin-4-amine]"
,> 20000,332,"CN1CCC(Oc2nc(NCc3nc4ccccc4[nH]3)n3ncc(Br)c3n2)CC1 [Example 389, N-[(1H-benzimidazol-2-yl)methyl]-8-bromo-2-[(1-methylpiperidin-4-yl)oxy]pyrazolo[1,5-a][1,3,5]triazin-4-amine]"
,> 20000,176,"CN1CCCN(c2nc(NCc3nc4ccccc4[nH]3)n3ncc(Br)c3n2)CC1 [Example 390, N-[(1H-benzimidazol-2-yl)methyl]-8-bromo-2-(4-methyl-1,4-diazepan-1-yl)pyrazolo[1,5-a][1,3,5]triazin-4-amine]"

Structure (SMILES),DC50 [1] [nM],IC50 (CDK9/CycT1) [nM],IC50 [2] [nM]
"Fc1cc2nc(CNc3nc(N4CC5CCC(C4)N5)nc4c(C5CC5)cnn34)[nH]c2cc1F [Example 325, 8-cyclopropyl-2-(3,8-diazabicyclo[3.2.1]octan-3-yl)-N-[(5,6-difluoro-1H-benzimidazol-2-yl)methyl]pyrazolo[1,5-a][1,5]triazin-4-amine]",0.53,> 20000,3.22
"Cc1cc2nc(CNc3nc(N4CC5CCC(C4)N5)nc4c(C5CC5)cnn34)[nH]c2cc1C [Example 326, 8-cyclopropyl-2-(3,8-diazabicyclo[3.2.1]octan-3-yl)-N-[(5,6-dimethyl-1H-benzimidazol-2-yl)methyl]pyrazolo[1,5-a][1,5]triazin-4-amine]",0.654,17000,1.57
"FC(F)(F)c1ccc2[nH]c(CNc3nc(N4CC5CCC(C4)N5)nc4c(C5CC5)cnn34)nc2c1 [Example 327, 8-cyclopropyl-2-(3,8-diazabicyclo[3.2.1]octan-3-yl)-N-{[5-(trifluoromethyl)-1H-benzimidazol-2-yl]methyl}pyrazolo[1,5-a][1,3,5]triazin-4-amine]",0.493,> 20000,2.27
"Fc1ccc2[nH]c(CNc3nc(N4CC5CCC(C4)N5)nc4c(Cl)cnn34)nc2c1F.O=CO [Example 360, formic acid 8-chloro-2-(3,8-diazabicyclo[3.2.1]octan-3-yl)-N-[(4,5-difluoro-1H-benzimidazol-2-yl)methyl]pyrazolo[1,5-a][1,3,5]triazin-4-amine]",0.709,,5.67
"FC(F)(F)Oc1cccc2[nH]c(CNc3nc(N4C[C@H]5CC[C@@H](C4)N5)nc4c(Br)cnn34)nc12 [Example 381, 8-bromo-2-[(1R,5S)-3,8-diazabicyclo[3.2.1]octan-3-yl]-N-{[4-(trifluoromethoxy)-1H-benzimidazol-2-yl]methyl}pyrazolo[1,5-a][1,3,5]triazin-4-amine]",,14000,43.5
"FC(F)(F)Oc1ccc2[nH]c(CNc3nc(N4C[C@H]5CC[C@@H](C4)N5)nc4c(Br)cnn34)nc2c1 [Example 382, 8-bromo-2-[(1R,5S)-3,8-diazabicyclo[3.2.1]octan-3-yl]-N-{[5-(trifluoromethoxy)-1H-benzimidazol-2-yl]methyl}pyrazolo[1,5-a][1,3,5]triazin-4-amine]",,> 20000,29.3
